Data reported in patent US10183914B2 (BAYER CROPSCIENCE AKTIENGESELLSCHAFT, priority 2014, dated 2019).

Experiments:
Oryza sativa = assay: Pre-emergence herbicidal effect and crop plant compatibility; assay type: in vivo; conditions: 3 weeks
Excerpt: (§1) Seeds of monocotyledonous and dicotyledonous weed plants and crop plants are laid out in wood-fiber pots in sandy loam and covered with soil. The compounds of the invention, formulated in the form of wettable powders (WP) or as emulsion concentrates (EC), are then applied to the surface of the covering soil as aqueous suspension or emulsion at a water application rate equating to 600 to 800 L/ha with addition of 0.2% wetting agent.
(§2) After the treatment, the pots are placed in a greenhouse and kept under good growth conditions for the trial plants. The damage to the trial plants is scored visually after a trial duration of 3 weeks by comparison with untreated controls (herbicidal activity in percent (%): 100% efficacy=the plants have died, 0% efficacy=like control plants).

[1] = tested on: Triticum aestivum (spring); assay: as above; assay type: in vivo; conditions: 3 weeks
Excerpt: as §1, §2

Zea mays = assay: as above; assay type: in vivo; conditions: 3 weeks
Excerpt: as §1, §2

Amaranthus retroflexus = assay: Pre-emergence herbicidal effect; assay type: in vivo; conditions: 3 weeks
Excerpt: as §1, §2

Matricaria inodora = assay: Pre-emergence herbicidal effect; assay type: in vivo; conditions: 3 weeks
Excerpt: as §1, §2

Veronica persica = assay: Pre-emergence herbicidal effect; assay type: in vivo; conditions: 3 weeks
Excerpt: as §1, §2

Viola tricolor = assay: Pre-emergence herbicidal effect; assay type: in vivo; conditions: 3 weeks
Excerpt: as §1, §2

[2] = logp (HCOOH), physicochemical characterization
Stellaria media = assay: Pre-emergence herbicidal effect; assay type: in vivo; conditions: 3 weeks
Excerpt: as §1, §2

Polygonum convolvulus = assay: Pre-emergence herbicidal effect; assay type: in vivo; conditions: 1280 g/ha, 3 weeks
Excerpt: as §1, §2

Echinochloa crus-galli = assay: Pre-emergence herbicidal effect; assay type: in vivo; conditions: 320 g/ha, 3 weeks
Excerpt: as §1, §2

Setaria viridis = assay: Pre-emergence herbicidal effect; assay type: in vivo; conditions: 3 weeks
Excerpt: as §1, §2

## COc1ccc2c(c1)CCC2Nc1ncc(C(C)=O)c(C)n1 (racemic) [1.92]
Oryza sativa; 320 g/ha
  ORYSA herbicidal activity in percent: 0%
[1]; 80 g/ha
  TRZAS herbicidal activity in percent: 0%
[1]; 320 g/ha
  TRZAS herbicidal activity in percent: 0%
Zea mays; 80 g/ha
  ZEAMX herbicidal activity in percent: 20%
Zea mays; 320 g/ha
  ZEAMX herbicidal activity in percent: 20%
Amaranthus retroflexus; 80 g/ha
  AMARE herbicidal activity in percent: 100%
Amaranthus retroflexus; 320 g/ha
  AMARE herbicidal activity in percent: 100%
Matricaria inodora; 320 g/ha
  MATIN herbicidal activity in percent: 100%
Veronica persica; 80 g/ha
  VERPE herbicidal activity in percent: 100%
Veronica persica; 320 g/ha
  VERPE herbicidal activity in percent: 100%
Viola tricolor; 320 g/ha
  VIOTR herbicidal activity in percent: 100%

## CC(=O)c1cnc(N[C@@H]2CCc3ccccc32)nc1C [1.89]
[2]
  logp (HCOOH): solid; logp (HCOOH): 2.80; 1H-NMR (CDCl3, 400 MHZ, δ in ppm: 1.90 (m, 1H, 1H
Oryza sativa; 320 g/ha
  ORYSA herbicidal activity in percent: 0%
[1]; 80 g/ha
  TRZAS herbicidal activity in percent: 0%
[1]; 320 g/ha
  TRZAS herbicidal activity in percent: 0%
Zea mays; 80 g/ha
  ZEAMX herbicidal activity in percent: 0%
Zea mays; 320 g/ha
  ZEAMX herbicidal activity in percent: 0%
Amaranthus retroflexus; 320 g/ha
  AMARE herbicidal activity in percent: 100%
Matricaria inodora; 80 g/ha
  MATIN herbicidal activity in percent: 100%
Matricaria inodora; 320 g/ha
  MATIN herbicidal activity in percent: 100%
Stellaria media; 80 g/ha
  STEME herbicidal activity in percent: 80%
Stellaria media; 320 g/ha
  STEME herbicidal activity in percent: 80%
Veronica persica; 80 g/ha
  VERPE herbicidal activity in percent: 80%
Veronica persica; 320 g/ha
  VERPE herbicidal activity in percent: 100%
Viola tricolor; 80 g/ha
  VIOTR herbicidal activity in percent: 90%
Viola tricolor; 320 g/ha
  VIOTR herbicidal activity in percent: 100%

## CC(=O)c1c(C)nc(NC2CCSc3c(F)cccc32)nc1C (racemic) [1.65]
[2]
  logp (HCOOH): solid; logp (HCOOH): 2.93; 1H-NMR (CDCl3, 400 MHZ, δ in ppm): 2.20 (m, 1H, 1H

## CC(=O)c1cnc(N[C@H]2c3cc(C)ccc3C[C@@H]2C)nc1 [1.10]
[2]; HCOOH
  chromatographic logP: 2.99

## CC(=O)c1cnc(NC2c3ccccc3CCC2C)nc1 (racemic) [1.20]
[2]
  logp (HCOOH): oily; logp (HCOOH): 2.93; 1H-NMR (CDCl3, 400 MHZ, δ in ppm): 1.05 (d, 3H, CH3);
[1]; 320 g/ha
  TRZAS herbicidal activity in percent: 20%
Zea mays; 320 g/ha
  ZEAMX herbicidal activity in percent: 0%
Zea mays; 1280 g/ha
  ZEAMX herbicidal activity in percent: 0%
Amaranthus retroflexus; 320 g/ha
  AMARE herbicidal activity in percent: 90%
Amaranthus retroflexus; 1280 g/ha
  AMARE herbicidal activity in percent: 100%
Matricaria inodora; 320 g/ha
  MATIN herbicidal activity in percent: 90%
Matricaria inodora; 1280 g/ha
  MATIN herbicidal activity in percent: 100%
Polygonum convolvulus
  POLCO herbicidal activity in percent: 100%
Stellaria media; 320 g/ha
  STEME herbicidal activity in percent: 100%
Stellaria media; 1280 g/ha
  STEME herbicidal activity in percent: 100%
Veronica persica; 320 g/ha
  VERPE herbicidal activity in percent: 100%
Veronica persica; 1280 g/ha
  VERPE herbicidal activity in percent: 100%
Viola tricolor; 320 g/ha
  VIOTR herbicidal activity in percent: 90%
Viola tricolor; 1280 g/ha
  VIOTR herbicidal activity in percent: 100%

## Cc1ccc2c(c1)[C@H](Nc1ncc3c(n1)CCCC3=O)CC2 [2.41]
[2]
  logp (HCOOH): oily; logp (HCOOH): 3.21; 1H-NMR (CDCl3, 400 MHZ, δ in ppm): 1.95 (m, 1H, 1H

## CC(=O)c1cnc(NC2CCOc3c(C)cc(F)cc32)nc1C (racemic) [1.87]
Oryza sativa; 80 g/ha
  ORYSA herbicidal activity in percent: 0%
[1]; 80 g/ha
  TRZAS herbicidal activity in percent: 0%
[1]; 320 g/ha
  TRZAS herbicidal activity in percent: 0%
Zea mays; 80 g/ha
  ZEAMX herbicidal activity in percent: 0%
Zea mays; 320 g/ha
  ZEAMX herbicidal activity in percent: 10%
Amaranthus retroflexus; 80 g/ha
  AMARE herbicidal activity in percent: 80%
Amaranthus retroflexus; 320 g/ha
  AMARE herbicidal activity in percent: 100%
Echinochloa crus-galli
  ECHCG herbicidal activity in percent: 100%
Matricaria inodora; 80 g/ha
  MATIN herbicidal activity in percent: 90%
Matricaria inodora; 320 g/ha
  MATIN herbicidal activity in percent: 100%
Setaria viridis; 320 g/ha
  SETVI herbicidal activity in percent: 100%
Stellaria media; 320 g/ha
  STEME herbicidal activity in percent: 100%
Veronica persica; 320 g/ha
  VERPE herbicidal activity in percent: 100%
Viola tricolor; 80 g/ha
  VIOTR herbicidal activity in percent: 100%
Viola tricolor; 320 g/ha
  VIOTR herbicidal activity in percent: 100%

## CC1CCc2ccccc2C1Nc1ncc2c(n1)CC(C)(C)CC2=O (racemic) [2.95]
[2]
  logp (HCOOH): oily; logp (HCOOH): 4.02; 1H-NMR (CDCl3, 400 MHZ, δ in ppm): 1.10 (s + d, 9H,
Oryza sativa; 80 g/ha
  ORYSA herbicidal activity in percent: 0%
Oryza sativa; 320 g/ha
  ORYSA herbicidal activity in percent: 0%
[1]; 80 g/ha
  TRZAS herbicidal activity in percent: 0%
[1]; 320 g/ha
  TRZAS herbicidal activity in percent: 0%
Zea mays; 80 g/ha
  ZEAMX herbicidal activity in percent: 0%
Zea mays; 320 g/ha
  ZEAMX herbicidal activity in percent: 0%
Amaranthus retroflexus; 80 g/ha
  AMARE herbicidal activity in percent: 100%
Amaranthus retroflexus; 320 g/ha
  AMARE herbicidal activity in percent: 100%
Echinochloa crus-galli
  ECHCG herbicidal activity in percent: 80%
Matricaria inodora; 80 g/ha
  MATIN herbicidal activity in percent: 90%
Matricaria inodora; 320 g/ha
  MATIN herbicidal activity in percent: 90%
Stellaria media; 80 g/ha
  STEME herbicidal activity in percent: 100%
Stellaria media; 320 g/ha
  STEME herbicidal activity in percent: 100%
Veronica persica; 80 g/ha
  VERPE herbicidal activity in percent: 100%
Veronica persica; 320 g/ha
  VERPE herbicidal activity in percent: 100%
Viola tricolor; 320 g/ha
  VIOTR herbicidal activity in percent: 100%

## COc1ccc2c(c1)OC(C)(C)CC2Nc1ncc(C(C)=O)c(C)n1 (racemic) [1.96]
[2]
  logp (HCOOH): solid; m.p.: 183.5° C.; logp (HCOOH): 3.12; 1H-NMR (CDCl3, 400 MHZ, δ in ppm):

## Cc1ccc2c(c1)[C@H](Nc1ncc3c(n1)CC(c1ccccc1F)CC3=O)[C@@H](C)C2 (stereo partly shown) [2.50]
[2]
  logp (HCOOH): oily; logp (HCOOH): 4.86; 1H-NMR (CDCl3, 400 MHZ, δ in ppm): 1.25 (t, 3H, CH3);
Zea mays; 320 g/ha
  ZEAMX herbicidal activity in percent: 0%
Zea mays; 1280 g/ha
  ZEAMX herbicidal activity in percent: 0%
Amaranthus retroflexus; 1280 g/ha
  AMARE herbicidal activity in percent: 100%
Setaria viridis; 1280 g/ha
  SETVI herbicidal activity in percent: 80%
Stellaria media; 320 g/ha
  STEME herbicidal activity in percent: 100%
Stellaria media; 1280 g/ha
  STEME herbicidal activity in percent: 100%
Veronica persica; 320 g/ha
  VERPE herbicidal activity in percent: 100%
Veronica persica; 1280 g/ha
  VERPE herbicidal activity in percent: 100%
Viola tricolor; 320 g/ha
  VIOTR herbicidal activity in percent: 90%
Viola tricolor; 1280 g/ha
  VIOTR herbicidal activity in percent: 90%

## COc1ccc2c(c1)CCCC2Nc1ncc2c(n1)CCCC2=O (racemic) [2.109]
[2]
  logp (HCOOH): solid; m.p.: 151.3° C.; logp (HCOOH): 2.83; 1H-NMR (CDCl3, 400 MHZ, δ in ppm):

## CC(C)c1ccc2c(c1)C(Nc1ncc3c(n1)CCCC3=O)CC2 (racemic) [2.107]
[2]
  logp (HCOOH): oily; logp (HCOOH): 3.83; 1H-NMR (CDCl3, 400 MHZ, δ in ppm): 1.20 (d, 6H,

## CC(=O)c1cnc(N[C@@H]2CCc3c(C)cc(C)cc32)nc1 [1.95]
[2]
  logp (HCOOH): solid; m.p.: 153.0° C.; logp (HCOOH): 3.45; 1H-NMR (CDCl3, 400 MHZ, δ in ppm):

## CC1Cc2cc(Cl)ccc2C1Nc1ncc2c(n1)CCCC2=O (racemic) [2.108]
[2]
  logp (HCOOH): oily; logp (HCOOH): 3.58; 1H-NMR (CDCl3, 400 MHZ, δ in ppm): 1.25 (d, 3H, CH3);

## O=C1CCCc2nc(N[C@@H]3CCc4ccccc43)ncc21 [2.38]
[2]
  logp (HCOOH): oily; logp (HCOOH): 4.84; 1H-NMR (CDCl3, 400 MHZ, δ in ppm): 1.85 (m, 1H, 1H

## CC1CCC(Nc2ncc3c(n2)CCCC3=O)c2ccccc21 (racemic) [2.111]
[2]
  logp (HCOOH): oily; logp (HCOOH): 3.37; 1H-NMR (CDCl3, 400 MHZ, δ in ppm): 1.35 (d, 3H, 3H

## CCC1Cc2ccc(C)cc2C1Nc1ncc2c(n1)CCCC2=O (racemic) [2.106]
[2]
  logp (HCOOH): oily; logp (HCOOH): 3.90; 1H-NMR (CDCl3, 400 MHZ, δ in ppm): 0.95 (t, 3H, CH3);

## O=C1CCCc2nc(NC3CCOc4c(Cl)cccc43)ncc21 (racemic) [2.84]
[2]
  logp (HCOOH): oily; logp (HCOOH): 2.75; 1H-NMR (CDCl3, 400 MHZ, δ in ppm): 2.15 (m, 3H, 2H

## O=C1CCCc2nc(NC3CCSc4ccc(F)cc43)ncc21 (racemic) [2.114]
[2]
  logp (HCOOH): oily; logp (HCOOH): 2.77; 1H-NMR (CDCl3, 400 MHZ, δ in ppm): 2.10 (m, 2H, 2H
